Assay results taken from PubChem BioAssay AID1963843 (Molecular Pharmacology Branch, DTP, NCI, 2024).

Tested on: 616215-338-R-J1-PDC complex spheroid viability
Assay: Anticancer human tumor 616215-338-R-J1-PDC patient-derived colon adenocarcinoma cell line growth inhibition [POLQ]
Conditions: for IC50: curve of first compound; for viability, T/C: stronger effect = lower value
Procedure, shortened: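 Complex spheroid viability model combining PDC tumour cells with endothelial (HUVEC) and MSC stromal cells. Novobiocin, ART-558 or RP6685 were tested singly and in combination with standard and investigational anticancer drugs. Each was titrated in half-log steps from near clinical Cmax, or from 10 microM where Cmax was unknown.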
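Also: spheroids exposed to compounds for one week before readout.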
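For viability, T/C in this document: percent viability relative to DMSO vehicle wells taken as 100%.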

## Nc1ccn(C2OC(CO)C(O)C2(F)F)c(=O)n1 (centres undefined) + Cc1cccc(N(C)C(=O)C2C(O)CCN2c2nc(C)cc(C(F)(F)F)c2C#N)c1
Second compound 0.0316 µM
  IC50: 42.3 nM
Second compound 0.1 µM
  IC50: 53.6 nM
Second compound 0.316 µM
  IC50: 58 nM
Second compound 1 µM
  IC50: 49.8 nM
Second compound 3.16 µM
  IC50: 57.5 nM
Second compound 10 µM
  IC50: 59.3 nM
Second compound 0.0316 µM, first compound 0.0316 µM
  viability, T/C: 55.2%
Second compound 0.0316 µM, first compound 0.1 µM
  viability, T/C: 36.6%
Second compound 0.0316 µM, first compound 0.316 µM
  viability, T/C: 22.8%
Second compound 0.0316 µM, first compound 1 µM
  viability, T/C: 30.8%
Second compound 0.0316 µM, first compound 3.16 µM
  viability, T/C: 29.6%
Second compound 0.0316 µM, first compound 10 µM
  viability, T/C: 27%
Second compound 0.1 µM, first compound 0.0316 µM
  viability, T/C: 62.2%
Second compound 0.1 µM, first compound 0.1 µM
  viability, T/C: 37.8%
Second compound 0.1 µM, first compound 0.316 µM
  viability, T/C: 23.4%
Second compound 0.1 µM, first compound 1 µM
  viability, T/C: 28.1%
Second compound 0.1 µM, first compound 3.16 µM
  viability, T/C: 40.2%
Second compound 0.1 µM, first compound 10 µM
  viability, T/C: 28.8%
Second compound 0.316 µM, first compound 0.0316 µM
  viability, T/C: 66.7%
Second compound 0.316 µM, first compound 0.1 µM
  viability, T/C: 36.1%
Second compound 0.316 µM, first compound 0.316 µM
  viability, T/C: 26%
Second compound 0.316 µM, first compound 1 µM
  viability, T/C: 25.7%
Second compound 0.316 µM, first compound 3.16 µM
  viability, T/C: 34.4%
Second compound 0.316 µM, first compound 10 µM
  viability, T/C: 28.9%
Second compound 1 µM, first compound 0.0316 µM
  viability, T/C: 61.9%
Second compound 1 µM, first compound 0.1 µM
  viability, T/C: 32.2%
Second compound 1 µM, first compound 0.316 µM
  viability, T/C: 25.4%
Second compound 1 µM, first compound 1 µM
  viability, T/C: 28.8%
Second compound 1 µM, first compound 3.16 µM
  viability, T/C: 26.7%
Second compound 1 µM, first compound 10 µM
  viability, T/C: 27.1%
Second compound 3.16 µM, first compound 0.0316 µM
  viability, T/C: 62.5%
Second compound 3.16 µM, first compound 0.1 µM
  viability, T/C: 40.4%
Second compound 3.16 µM, first compound 0.316 µM
  viability, T/C: 25.5%
Second compound 3.16 µM, first compound 1 µM
  viability, T/C: 29.4%
Second compound 3.16 µM, first compound 3.16 µM
  viability, T/C: 28.2%
Second compound 3.16 µM, first compound 10 µM
  viability, T/C: 26.8%
Second compound 10 µM, first compound 0.0316 µM
  viability, T/C: 63.9%
Second compound 10 µM, first compound 0.1 µM
  viability, T/C: 40.5%
Second compound 10 µM, first compound 0.316 µM
  viability, T/C: 26%
Second compound 10 µM, first compound 1 µM
  viability, T/C: 27.1%
Second compound 10 µM, first compound 3.16 µM
  viability, T/C: 30.1%
Second compound 10 µM, first compound 10 µM
  viability, T/C: 26.2%

## CC(=O)O[C@H]1C(=O)[C@@]2(C)[C@H]([C@H](OC(=O)c3ccccc3)[C@]3(O)C[C@H](OC(=O)[C@H](O)[C@@H](NC(=O)c4ccccc4)c4ccccc4)C(C)=C1C3(C)C)[C@]1(OC(C)=O)CO[C@@H]1C[C@@H]2O + Nc1ccc(C#CCN(C(=O)Cc2ncc(C(F)(F)F)cc2C(F)(F)F)c2ccc(F)cc2)nn1
Second compound 0.0316 µM
  IC50: < 9.49 nM
Second compound 0.1 µM
  IC50: < 9.49 nM
Second compound 0.316 µM
  IC50: < 9.49 nM
Second compound 1 µM
  IC50: < 9.49 nM
Second compound 3.16 µM
  IC50: < 9.49 nM
Second compound 10 µM
  IC50: < 9.49 nM
Second compound 0.0316 µM, first compound 0.00949 µM
  viability, T/C: 38.1%
Second compound 0.0316 µM, first compound 0.03 µM
  viability, T/C: 25.5%
Second compound 0.0316 µM, first compound 0.0949 µM
  viability, T/C: 22.9%
Second compound 0.0316 µM, first compound 0.3 µM
  viability, T/C: 18.4%
Second compound 0.0316 µM, first compound 0.949 µM
  viability, T/C: 16.6%
Second compound 0.0316 µM, first compound 3 µM
  viability, T/C: 17.7%
Second compound 0.1 µM, first compound 0.00949 µM
  viability, T/C: 50%
Second compound 0.1 µM, first compound 0.03 µM
  viability, T/C: 24.6%
Second compound 0.1 µM, first compound 0.0949 µM
  viability, T/C: 21.3%
Second compound 0.1 µM, first compound 0.3 µM
  viability, T/C: 17.4%
Second compound 0.1 µM, first compound 0.949 µM
  viability, T/C: 17.6%
Second compound 0.1 µM, first compound 3 µM
  viability, T/C: 19%
Second compound 0.316 µM, first compound 0.00949 µM
  viability, T/C: 42.3%
Second compound 0.316 µM, first compound 0.03 µM
  viability, T/C: 22.4%
Second compound 0.316 µM, first compound 0.0949 µM
  viability, T/C: 20.9%
Second compound 0.316 µM, first compound 0.3 µM
  viability, T/C: 19.1%
Second compound 0.316 µM, first compound 0.949 µM
  viability, T/C: 16.8%
Second compound 0.316 µM, first compound 3 µM
  viability, T/C: 14.8%
Second compound 1 µM, first compound 0.00949 µM
  viability, T/C: 41.1%
Second compound 1 µM, first compound 0.03 µM
  viability, T/C: 25%
Second compound 1 µM, first compound 0.0949 µM
  viability, T/C: 24.1%
Second compound 1 µM, first compound 0.3 µM
  viability, T/C: 26.1%
Second compound 1 µM, first compound 0.949 µM
  viability, T/C: 14%
Second compound 1 µM, first compound 3 µM
  viability, T/C: 16.6%
Second compound 3.16 µM, first compound 0.00949 µM
  viability, T/C: 30.2%
Second compound 3.16 µM, first compound 0.03 µM
  viability, T/C: 22.1%
Second compound 3.16 µM, first compound 0.0949 µM
  viability, T/C: 22.4%
Second compound 3.16 µM, first compound 0.3 µM
  viability, T/C: 20.2%
Second compound 3.16 µM, first compound 0.949 µM
  viability, T/C: 16.5%
Second compound 3.16 µM, first compound 3 µM
  viability, T/C: 15.1%
Second compound 10 µM, first compound 0.00949 µM
  viability, T/C: 36.9%
Second compound 10 µM, first compound 0.03 µM
  viability, T/C: 25%
Second compound 10 µM, first compound 0.0949 µM
  viability, T/C: 23.3%
Second compound 10 µM, first compound 0.3 µM
  viability, T/C: 18.4%
Second compound 10 µM, first compound 0.949 µM
  viability, T/C: 18.1%
Second compound 10 µM, first compound 3 µM
  viability, T/C: 21.6%
